Measurements reported in patent US11066668B2, “Compositions and methods for modulation of IKBKAP splicing” (Ionis Pharmaceuticals, Inc., priority 2012, dated 2021).
Oligonucleotides are written 5' to 3', each unit as a sugar letter and its base; * is a phosphorothioate linkage, no mark a phosphodiester; rarer units and linkages stand in square brackets, end groups in braces. Plain capitals give the bases only. e = 2'-O-(2-methoxyethyl) (MOE); [5mC] = 5-methylcytosine

Test system: IKBKAP pre-mRNA (mt19-21 minigene)
Test: Exon 20 inclusion in HEK-293 cells harboring the mt19-21 IKBKAP minigene (RT-PCR)
Type: cell-based, human
Details: HEK-293 with mt19-21 minigene; for % inclusion (exon 20): 0.007 nmol oligonucleotide by electroporation, RT-PCR two days later; for effect on exon 20 inclusion/skipping, in words: 0.007 nmol oligonucleotide
Protocol: Antisense oligonucleotides were designed targeting a human IKBKAP nucleic acid and were tested for their effects on IKBKAP pre-mRNA in vitro. Together, the overlapping antisense oligonucleotides spanned the entire 74-nucleotide region of the IKBKAP exon 20 sequence, as well as the 100-nucleotide intronic regions immediately upstream and downstream of exon 20. The antisense oligonucleotides are presented in Table 1, and were designed as uniform 2′-O-methoxyethyl ribose (MOE) oligonucleotides with phosphate backbones. Each oligonucleotide is 15 nucleosides in length. All cytosine residues throughout the oligonucleotide are 5-methylcytosines. ‘Start Site’ indicates the 5′-most nucleoside to which the oligonucleotide is targeted in the human gene sequence. “Stop site” indicates the 3′-most nucleoside to which the oligonucleotide is targeted in the human gene sequence. Each oligonucleotide listed in Table 1 is targeted to the human IKBKAP genomic sequence (the complement of GENBANK Accession No NT_008470.16 truncated from nucleotides 13290828 to Ser. No. 13/358,424, designated herein as SEQ ID NO: 1). ISIS 414161 has one mismatch with SEQ ID NO: 1.
Cultured HEK-293 cells harboring the mt19-21 minigene vector construct at a density of 7×10^5 cells per well were transfected using electroporation (Gene Pulsar II apparatus, Bio-Rad) with 0.007 nmol antisense oligonucleotide, as previously described (Hua, Y., et al., 2007. PLoS Biol 5:e73). […] These oligonucleotides served as controls for non-specific effects of uniform MOE oligonucleotides with phosphate backbones. Cells harboring the wt19-21 minigene and the mt19-21 minigene alone were also cultured and were used as controls for exon 20 inclusion levels. Two days later, cDNA synthesized from total RNA extracted from HEK-293 cells was amplified using the forward primer pCDNAF and reverse primer sequence IKAP21R4 to assay the splicing pattern of expressed RNAs by RT-PCR. To calculate exon 20 inclusion levels, the PCR amplicons were labeled with α^32P-dCTP. The PCR products were then separated by native PAGE, followed by phosphorimage analysis on a FUJIFILM FLA-5100 instrument (Fuji Medical Systems USA Inc.). The band intensities were quantified using Multi Gauge software Version 2.3 (FUJIFILM), and values were normalized for the G+C content according to the DNA sequence.
Treatment with antisense oligonucleotides targeting the 3′ and 5′ splice sites caused increased skipping of exon 20.
Additional oligonucleotides were designed targeting the first 30-nucleotide stretch of ISS-40. These oligonucleotides were designed by choosing sequences shifted in one nucleotide increments upstream and downstream (i.e., a “microwalk”) of ISS-40, starting from the +6 position in exon 20. The antisense oligonucleotides are presented in Table 2 and FIG. 4D, and were designed as uniform 2′-O-methoxyethyl ribose (MOE) oligonucleotides with phosphate backbones. Each oligonucleotide is 20 nucleosides in length. All cytosine residues throughout the oligonucleotide are 5-methylcytosines. ‘Start Site’ indicates the 5′-most nucleoside to which the oligonucleotide is targeted in the human gene sequence. “Stop site” indicates the 3′-most nucleoside to which the oligonucleotide is targeted in the human gene sequence. Each oligonucleotide listed in Table 2 is targeted to intron 20 of the human IKBKAP genomic sequence (the complement of GENBANK Accession No NT_008470.16 truncated from nucleotides 13290828 to Ser. No. 13/358,424, designated herein as SEQ ID NO: 1). These oligonucleotides were tested in vitro.
Cultured HEK-293 cells harboring the mt19-21 minigene vector construct at a density of 7×10^5 cells per well were transfected using electroporation (Gene Pulsar II apparatus, Bio-Rad) with 0.007 nmol antisense oligonucleotide, as previously described (Hua, Y., et al., 2007. PLoS Biol 5:e73). […]

Substance | % inclusion (exon 20) (Table 1) [%] | effect on exon 20 inclusion/skipping, in words | % inclusion (exon 20) (Table 2 (microwalk experiment)) [%]
ISIS 414157: uniform 2′-MOE 15-mer, phosphate backbone; CACTTCCGAATCTGA, SEQ ID NO 36, exon 20 (e[5mC]eAe[5mC]eTeTe[5mC]e[5mC]eGeAeAeTe[5mC]eTeGeA; splice-switching) | 15 |  | 
ISIS 414158: uniform 2′-MOE 15-mer, phosphate backbone; CCAACCACTTCCGAA, SEQ ID NO 37, exon 20 (e[5mC]e[5mC]eAeAe[5mC]e[5mC]eAe[5mC]eTeTe[5mC]e[5mC]eGeAeA; splice-switching) | 1 |  | 
ISIS 414159: uniform 2′-MOE 15-mer, phosphate backbone; TTGTCCAACCACTTC, SEQ ID NO 38, exon 20 (eTeTeGeTe[5mC]e[5mC]eAeAe[5mC]e[5mC]eAe[5mC]eTeTe[5mC]; splice-switching) | 2 |  | 
ISIS 414160: uniform 2′-MOE 15-mer, phosphate backbone; TACAATGGCGCTTAC, SEQ ID NO 39, intron 20 (eTeAe[5mC]eAeAeTeGeGe[5mC]eGe[5mC]eTeTeAe[5mC]; splice-switching) | 14 |  | 
ISIS 414161: uniform 2′-MOE 15-mer, phosphate backbone; AACAGTACAATGGCG, SEQ ID NO 40, intron 20; one mismatch with SEQ ID NO 1 (eAeAe[5mC]eAeGeTeAe[5mC]eAeAeTeGeGe[5mC]eG) | 88 | markedly increased inclusion of exon 20 | 79
ISIS 414162: uniform 2′-MOE 15-mer, phosphate backbone; TCGCAAACAGTACAA, SEQ ID NO 41, intron 20 (eTe[5mC]eGe[5mC]eAeAeAe[5mC]eAeGeTeAe[5mC]eAeA; splice-switching) | 79 | markedly increased inclusion of exon 20 | 82
ISIS 414163: uniform 2′-MOE 15-mer, phosphate backbone; ACTAGTCGCAAACAG, SEQ ID NO 42, intron 20 (eAe[5mC]eTeAeGeTe[5mC]eGe[5mC]eAeAeAe[5mC]eAeG; splice-switching) | 74 | markedly increased inclusion of exon 20 | 74
ISIS 414164: uniform 2′-MOE 15-mer, phosphate backbone; AGCTAACTAGTCGCA, SEQ ID NO 43, intron 20 (eAeGe[5mC]eTeAeAe[5mC]eTeAeGeTe[5mC]eGe[5mC]eA; splice-switching) | 78 | markedly increased inclusion of exon 20 | 74
ISIS 414165: uniform 2′-MOE 15-mer, phosphate backbone; TCACAAGCTAACTAG, SEQ ID NO 44, intron 20 (eTe[5mC]eAe[5mC]eAeAeGe[5mC]eTeAeAe[5mC]eTeAeG; splice-switching) | 66 | markedly increased inclusion of exon 20 | 64
ISIS 414166: uniform 2′-MOE 15-mer, phosphate backbone; ATAAATCACAAGCTA, SEQ ID NO 45, intron 20 (eAeTeAeAeAeTe[5mC]eAe[5mC]eAeAeGe[5mC]eTeA; splice-switching) | 40 | markedly increased inclusion of exon 20 | 38
ISIS 414167: uniform 2′-MOE 15-mer, phosphate backbone; CACACATAAATCACA, SEQ ID NO 46, intron 20 (e[5mC]eAe[5mC]eAe[5mC]eAeTeAeAeAeTe[5mC]eAe[5mC]eA; splice-switching) | 13 | significantly decreased the levels of the included RNA isoform | 
ISIS 414168: uniform 2′-MOE 15-mer, phosphate backbone; GTCTTCACACATAAA, SEQ ID NO 47, intron 20 (eGeTe[5mC]eTeTe[5mC]eAe[5mC]eAe[5mC]eAeTeAeAeA; splice-switching) | 17 | significantly decreased the levels of the included RNA isoform | 
ISIS 414169: uniform 2′-MOE 15-mer, phosphate backbone; TTATTGTCTTCACAC, SEQ ID NO 48, intron 20 (eTeTeAeTeTeGeTe[5mC]eTeTe[5mC]eAe[5mC]eAe[5mC]; splice-switching) | 21 |  | 
ISIS 414170: uniform 2′-MOE 15-mer, phosphate backbone; AATACTTATTGTCTT, SEQ ID NO 49, intron 20 (eAeAeTeAe[5mC]eTeTeAeTeTeGeTe[5mC]eTeT; splice-switching) | 32 |  | 
ISIS 414171: uniform 2′-MOE 15-mer, phosphate backbone; AATAAAATACTTATT, SEQ ID NO 50, intron 20 (eAeAeTeAeAeAeAeTeAe[5mC]eTeTeAeTeT; splice-switching) | 32 |  | 
ISIS 414172: uniform 2′-MOE 15-mer, phosphate backbone; ATTGTAATAAAATAC, SEQ ID NO 51, intron 20 (eAeTeTeGeTeAeAeTeAeAeAeAeTeAe[5mC]; splice-switching) | 31 |  | 
ISIS 414173: uniform 2′-MOE 15-mer, phosphate backbone; TCGAAATTGTAATAA, SEQ ID NO 52, intron 20 (eTe[5mC]eGeAeAeAeTeTeGeTeAeAeTeAeA; splice-switching) | 31 |  | 
ISIS 414174: uniform 2′-MOE 15-mer, phosphate backbone; AGTTCTCGAAATTGT, SEQ ID NO 53, intron 20 (eAeGeTeTe[5mC]eTe[5mC]eGeAeAeAeTeTeGeT; splice-switching) | 29 |  | 
ISIS 414175: uniform 2′-MOE 15-mer, phosphate backbone; TTTTAAGTTCTCGAA, SEQ ID NO 54, intron 20 (eTeTeTeTeAeAeGeTeTe[5mC]eTe[5mC]eGeAeA; splice-switching) | 27 |  | 
ISIS 414176: uniform 2′-MOE 15-mer, phosphate backbone; CATAATTTTAAGTTC, SEQ ID NO 55, intron 20 (e[5mC]eAeTeAeAeTeTeTeTeAeAeGeTeTe[5mC]; splice-switching) | 31 |  | 
ISIS 414177: uniform 2′-MOE 15-mer, phosphate backbone; CTTTTCATAATTTTA, SEQ ID NO 56, intron 20 (e[5mC]eTeTeTeTe[5mC]eAeTeAeAeTeTeTeTeA; splice-switching) | 25 |  | 
ISIS 421991: uniform 2′-MOE 20-mer, phosphate backbone; TCGCAAACAGTACAATGGCG, SEQ ID NO 60, intron 20 (eTe[5mC]eGe[5mC]eAeAeAe[5mC]eAeGeTeAe[5mC]eAeAeTeGeGe[5mC]eG; splice-switching) |  |  | 91
ISIS 421993: uniform 2′-MOE 20-mer, phosphate backbone; AGTCGCAAACAGTACAATGG, SEQ ID NO 62, intron 20 (eAeGeTe[5mC]eGe[5mC]eAeAeAe[5mC]eAeGeTeAe[5mC]eAeAeTeGeG; splice-switching) |  |  | 87
